Laboratory results published in patent US20080200405A1, “Drug Resistance Reversal In Neoplastic Disease” (priority 2007, published 2008).

Tests used:
TNFα = test: Measurement of LPS Induced-TNFα in THP-1 Cells; type: cell-based, human; conditions: compound 10 uM, 5 ng/mL LPS
[1] = tested on: bFGF-induced angiogenesis in the CAM model; test: bFGF (FGF2)-stimulated CAM model; type: in vivo, chicken; conditions: for Mean % Inhibition ± SD / Mean Branch points ± SEM: bFGF 1 μg/ml
[2] = In vitro stability of OT-551 in dog plasma; type: in vitro ADME
Experimental: (§1) The active metabolite of OT-551 (Cyclopropanecarboxylic acid 1-hydroxy-2,2,6,6-tetramethyl-piperidin-4-yl ester) is TP-H. The objective of this analysis was to determine the in vitro half-life of OT-551 in rat, rabbit, dog, and human plasma under standardized incubation conditions.
(§2) OT-551 was incubated with pooled rat, rabbit, dog, and human plasma for various times under standardized incubation conditions. Pre-labeled tubes containing pooled plasma from rats, rabbits, dogs, and humans were pre-incubated in a shaking 37° C. water bath. A OT-551 solution was added to the tubes at a final concentration of 1000 ng/mL. Time zero samples (n=5) were immediately removed and transferred into tubes containing a stabilizer solution (DTPA, acetylcysteine and ascorbic acid), the LC/MS/MS assay internal standard and methanol. […] The tubes were vortexed, placed on ice, followed by centrifugation. One hundred-μL aliquots of the supernatant were transferred into HPLC sample vials. Additional tubes (n=5 at each time point) were incubated for 5, 10, 20, 30, 60, 120, and 240 minutes at 37° C. and thereafter processed. The amount of OT-551 and TP-H in each incubated sample was quantified using validated LC/MS/MS assays.

[3] = In vitro stability of OT-551 in human plasma; type: in vitro ADME
Experimental: as §1, §2

[4] = tested on: Human whole blood clot formation; conditions: compound 4 at 1 ug and 10 ug
mouse V79 cells = conditions: cited from earlier work

With `CC1(C)CC(OC(=O)C2CC2)CC(C)(C)N1O.Cl` [OT-551, 1-hydroxy-4-cyclopropanecarbonyloxy-2,2,6,6-tetramethylpiperidine hydrochloride] the inhibition at 10 µM (TNFα; Homo sapiens, THP-1, read-out: Mean Percent Inhibition of TNF-alpha using 5 ng/mL LPS) was 68 ± 6%, the inhibition in vivo at 0.03 mg ([1]; Gallus gallus, bFGF/FGF2 1 ug, 30 ug injected, read-out: % Inhibition ± SEM) was 74 ± 4% and the “Branch pts ± SEM” value ([1]; bFGF/FGF2 1 ug, 30 ug injected) was 87 ± 3. The “Concentrations (ng/mL) of OT-551 in Dog Plasma” value ([2]; incubation time 0 min) was 771.12 ± 21.68 ng/mL, the “Concentrations (ng/mL) of OT-551 in Dog Plasma” value ([2]; incubation time 5 min) was 804.93 ± 17.45 ng/mL and the “Concentrations (ng/mL) of OT-551 in Dog Plasma” value ([2]; incubation time 10 min) was 811.14 ± 21.06 ng/mL. For the same molecule, the “Concentrations (ng/mL) of OT-551 in Dog Plasma” value ([2]; incubation time 20 min) was 809.01 ± 18.58 ng/mL, the “Concentrations (ng/mL) of OT-551 in Dog Plasma” value ([2]; incubation time 30 min) was 789.53 ± 13.73 ng/mL and the “Concentrations (ng/mL) of OT-551 in Dog Plasma” value ([2]; incubation time 60 min) was 717.22 ± 25.73 ng/mL. For the same molecule, the “Concentrations (ng/mL) of OT-551 in Dog Plasma” value ([2]; incubation time 120 min) was 608.14 ± 25.96 ng/mL, the “Concentrations (ng/mL) of OT-551 in Dog Plasma” value ([2]; incubation time 240 min) was 428.20 ± 12.03 ng/mL and the “Concentrations (ng/mL) of OT-551 in Human Plasma” value ([3]; incubation time 0 min) was 775.47 ± 22.50 ng/mL. For the same molecule, the “Concentrations (ng/mL) of OT-551 in Human Plasma” value ([3]; incubation time 5 min) was 593.43 ± 7.55 ng/mL, the “Concentrations (ng/mL) of OT-551 in Human Plasma” value ([3]; incubation time 10 min) was 503.18 ± 20.90 ng/mL and the “Concentrations (ng/mL) of OT-551 in Human Plasma” value ([3]; incubation time 20 min) was 394.69 ± 6.72 ng/mL. The “Concentrations (ng/mL) of OT-551 in Human Plasma” value ([3]; incubation time 30 min) was 316.37 ± 7.67 ng/mL, the “Concentrations (ng/mL) of OT-551 in Human Plasma” value ([3]; incubation time 60 min) was 162.41 ± 9.77 ng/mL and the “Concentrations (ng/mL) of OT-551 in Human Plasma” value ([3]; incubation time 120 min) was 32.22 ± 2.63 ng/mL. For the same molecule, the “Concentrations (ng/mL) of OT-551 in Human Plasma” value ([3]; incubation time 240 min) was 0.00 ± 0.00 ng/mL and the “effect on clot formation with Bevacizumab/Ranibizumab” value [4] was “completely abrogated the clot formation”.
In the case of `CC1(C)CC(O)CC(C)(C)N1O` [TEMPOL-H], the “Mean Percent Inhibition of TNF-alpha using 5 ng/mL LPS” value (TNFα) is reported as 74 ± 8%, the “inhibition of bFGF-induced angiogenesis” value ([1]; 100-400 μg) is reported as “dose-dependent inhibition” and the “Mean % Inhibition ± SD” value ([1]; 100 μg) is reported as 20 ± 12%. For the same molecule, the “Mean Branch points ± SEM” value ([1]; 100 μg) was 172 ± 12.4, the “Mean % Inhibition ± SD” value ([1]; 200 μg) was 45.3 ± 7.5 % and the “Mean Branch points ± SEM” value ([1]; 200 μg) was 147.2 ± 7.5. The “Mean % Inhibition ± SD” value ([1]; 400 μg) was 58.7 ± 10.9 %, the “Mean Branch points ± SEM” value ([1]; 400 μg) was 133.8 ± 10.8 and the “Mean % Inhibition ± SD” value ([1]; 800 μg) was 28.1 ± 6.8 %. The “Mean Branch points ± SEM” value ([1]; 800 μg) was 164.2 ± 6.7, the “Concentrations (ng/mL) of TP-H in Dog Plasma” value ([2]; OT-551 incubation time 0 min) was 0.00 ± 0.00 ng/mL and the “Concentrations (ng/mL) of TP-H in Dog Plasma” value ([2]; OT-551 incubation time 5 min) was 5.85 ± 0.73 ng/mL. The “Concentrations (ng/mL) of TP-H in Dog Plasma” value ([2]; OT-551 incubation time 10 min) was 8.77 ± 0.65 ng/mL, the “Concentrations (ng/mL) of TP-H in Dog Plasma” value ([2]; OT-551 incubation time 20 min) was 12.79 ± 0.74 ng/mL and the “Concentrations (ng/mL) of TP-H in Dog Plasma” value ([2]; OT-551 incubation time 30 min) was 16.22 ± 0.67 ng/mL. For the same molecule, the “Concentrations (ng/mL) of TP-H in Dog Plasma” value ([2]; OT-551 incubation time 60 min) was 25.68 ± 1.04 ng/mL, the “Concentrations (ng/mL) of TP-H in Dog Plasma” value ([2]; OT-551 incubation time 120 min) was 39.31 ± 1.09 ng/mL and the “Concentrations (ng/mL) of TP-H in Dog Plasma” value ([2]; OT-551 incubation time 240 min) was 53.92 ± 1.68 ng/mL. For the same molecule, the “Concentrations (ng/mL) of TP-H in Human Plasma” value ([3]; OT-551 incubation time 0 min) was 48.76 ± 2.84 ng/mL, the “Concentrations (ng/mL) of TP-H in Human Plasma” value ([3]; OT-551 incubation time 5 min) was 186.71 ± 4.58 ng/mL and the “Concentrations (ng/mL) of TP-H in Human Plasma” value ([3]; OT-551 incubation time 10 min) was 241.99 ± 8.05 ng/mL. For the same molecule, the “Concentrations (ng/mL) of TP-H in Human Plasma” value ([3]; OT-551 incubation time 20 min) was 310.10 ± 8.54 ng/mL, the “Concentrations (ng/mL) of TP-H in Human Plasma” value ([3]; OT-551 incubation time 30 min) was 365.53 ± 14.44 ng/mL and the “Concentrations (ng/mL) of TP-H in Human Plasma” value ([3]; OT-551 incubation time 60 min) was 449.85 ± 9.73 ng/mL. For the same molecule, the “Concentrations (ng/mL) of TP-H in Human Plasma” value ([3]; OT-551 incubation time 120 min) was 519.12 ± 19.52 ng/mL, the “Concentrations (ng/mL) of TP-H in Human Plasma” value ([3]; OT-551 incubation time 240 min) was 501.39 ± 11.33 ng/mL and the “radioprotection of mouse V79 cells” value (mouse V79 cells) was “did not provide any radioprotection”.
